Experimental data as given in patent US4439426A, “Semisynthetic macrolidic antibiotics, intermediate compounds for their preparation and related pharmaceutical compositions containing them” (priority 1981, dated 1984).
In brackets after ≈: the same amount, converted by molar mass.

Tests used:
[1] = tested on: Staphylococcus aureus ATCC 6538 P LRP 39; assay: Minimum bactericidal concentration (MBC); assay type: cell-based
Source text: (§1) the bacterial power, expressed as the minimum bactericidal power (MBC) against some Gram positive aerobic stocks (table 5).

[2] = tested on: Streptococcus faecalis subs. zymogenes LRP 61; assay: Minimum bactericidal concentration (MBC); assay type: cell-based
Source text: as §1

[3] = tested on: Streptococcus pneumoniae ATCC 6303 LRP 35; assay: Minimum bactericidal concentration (MBC); assay type: cell-based
Source text: as §1

[4] = tested on: Corynebacterium diphteriae LRP 24; assay: Minimum bactericidal concentration (MBC); assay type: cell-based
Source text: as §1

[5] = tested on: Streptococcus pyogenes ATCC 8668 LRP 34; assay: Minimum bactericidal concentration (MBC); assay type: cell-based
Source text: as §1

[6] = tested on: Staphylococcus aureus ATCC 6538 P LRP 39; assay: Bacteriostatic power in liquid medium (MIC); assay type: cell-based; conditions: Staphylococcus aureus, ATCC6538; liquid medium; read-out: Minimum inhibiting concentration
Source text: (§2) the bacteriostatic power, expressed as the minimum inhibiting concentration (MIC) against both aerobic and anaerobic, Gram positive and Gram negative, bacterial stocks: the related results are reported in the tables 2 and 3.

[7] = tested on: Streptococcus pneumoniae ATCC 6303 LRP 35; assay: Bacteriostatic power in liquid medium (MIC); assay type: cell-based; conditions: Streptococcus pneumoniae, ATCC6303; liquid medium; read-out: Minimum inhibiting concentration
Source text: as §2

[8] = tested on: Corynebacterium diphteriae LRP 24; assay: Bacteriostatic power in liquid medium (MIC); assay type: cell-based; conditions: Corynebacterium, LRP24; liquid medium; read-out: Minimum inhibiting concentration
Source text: as §2

[9] = tested on: Streptococcus faecalis subs. zymogenes ATCC 12958 LRP 61; assay: Bacteriostatic power in liquid medium (MIC); assay type: cell-based; conditions: Enterococcus faecalis, ATCC12958; liquid medium; read-out: Minimum inhibiting concentration
Source text: as §2

[10] = tested on: Streptococcus pyogenes ATCC 8668 LRP 34; assay: Bacteriostatic power in liquid medium (MIC); assay type: cell-based; conditions: Streptococcus pyogenes, ATCC8668; liquid medium; read-out: Minimum inhibiting concentration
Source text: as §2

[11] = tested on: Clostridium perfrigens ATCC 3624 LRP 206; assay: microbe, parasite or virus in culture; assay type: cell-based; conditions: ATCC3624, solid medium, anaerobic, read-out: Minimum inhibiting concentration
Source text: as §2

[12] = tested on: Salmonella typhy LRP 8; assay: microbe, parasite or virus in culture; assay type: cell-based; conditions: LRP8, solid medium, read-out: Minimum inhibiting concentration
Source text: as §2

[13] = tested on: Haemophilus influenzae ATCC 19418 LRP 213; assay: Bacteriostatic power in solid medium (MIC); assay type: cell-based; conditions: Haemophilus influenzae, ATCC19418; solid medium; read-out: Minimum inhibiting concentration
Source text: as §2

[14] = tested on: Pseudomonas aeruginosa LRP 9; assay: Bacteriostatic power in solid medium (MIC); assay type: cell-based; conditions: Pseudomonas aeruginosa, LRP9; solid medium; read-out: Minimum inhibiting concentration
Source text: as §2

[15] = tested on: Streptococcus pyogenes ATCC 8668 LRP 197; assay: Bacteriostatic power in solid medium (MIC); assay type: cell-based; conditions: Streptococcus pyogenes, ATCC8668; solid medium; read-out: Minimum inhibiting concentration
Source text: as §2

[16] = tested on: Escherichia coli LRP 50; assay: Bacteriostatic power in solid medium (MIC); assay type: cell-based; conditions: Escherichia coli, LRP50; solid medium; read-out: Minimum inhibiting concentration
Source text: as §2

[17] = tested on: Neisseria gonorrhoeae ATCC 19424 LRP 214; assay: Bacteriostatic power in solid medium (MIC); assay type: cell-based; conditions: Neisseria gonorrhoeae, ATCC19424; solid medium; read-out: Minimum inhibiting concentration
Source text: as §2

[18] = tested on: Staphylococcus aureus ATCC 14154 LRP 78; assay: Bacteriostatic power in solid medium (MIC); assay type: cell-based; conditions: Staphylococcus aureus, ATCC14154; solid medium; Erythromycin resistant; read-out: Minimum inhibiting concentration
Source text: as §2

[19] = tested on: Mycoplasma hominis I ATCC 14027 LRP 211; assay: Bacteriostatic power in solid medium (MIC); assay type: cell-based; conditions: Metamycoplasma hominis, ATCC14027; solid medium; read-out: Minimum inhibiting concentration
Source text: as §2

[20] = tested on: Bacteroides fragilis ATCC 23745 LRP 205; assay: Bacteriostatic power in solid medium (MIC); assay type: cell-based; conditions: Bacteroides fragilis, ATCC23745; solid medium; anaerobic; read-out: Minimum inhibiting concentration
Source text: as §2

[21] = tested on: Shigella sonnei LRP 5; assay: Bacteriostatic power in solid medium (MIC); assay type: cell-based; conditions: LRP5, read-out: Minimum inhibiting concentration
Source text: as §2

[22] = tested on: Streptococcus pneumoniae ATCC 6303 LRP 35; assay: Bacteriostatic power in solid medium (MIC); assay type: cell-based; conditions: Streptococcus pneumoniae, ATCC6303; solid medium; read-out: Minimum inhibiting concentration
Source text: as §2

[23] = tested on: Fusobacteriumnecrophroum ATCC 27852 LRP 210; assay: Bacteriostatic power in solid medium (MIC); assay type: cell-based; conditions: solid medium; anaerobic; read-out: Minimum inhibiting concentration
Source text: as §2

[24] = tested on: Streptococcus pneumoniae ATCC 6303 LRP 53; assay: Bacteriostatic power in solid medium (MIC); assay type: cell-based; conditions: Streptococcus pneumoniae, ATCC6303; solid medium; read-out: Minimum inhibiting concentration
Source text: as §2

[25] = tested on: Micrococcus luteus ATCC 9341 LRP 6; assay: Bacteriostatic power in solid medium (MIC); assay type: cell-based; conditions: Micrococcus luteus, ATCC9341; solid medium; read-out: Minimum inhibiting concentration
Source text: as §2

[26] = tested on: Staphylococcus aureus ATCC 6538P LRP 14; assay: Bacteriostatic power in solid medium (MIC); assay type: cell-based; conditions: Staphylococcus aureus, ATCC6538P; solid medium; Penycilline resistant; read-out: Minimum inhibiting concentration
Source text: as §2

[27] = tested on: Proteus vulgaris ATCC 6380 LRP 13; assay: Bacteriostatic power in solid medium (MIC); assay type: cell-based; conditions: Proteus vulgaris, ATCC6380; solid medium; read-out: Minimum inhibiting concentration
Source text: as §2

[28] = tested on: Klelsiella pneumoniae LRP 54; assay: Bacteriostatic power in solid medium (MIC); assay type: cell-based; conditions: solid medium; read-out: Minimum inhibiting concentration
Source text: as §2

[29] = tested on: Corynebacterium diphteriae LRP 24; assay: Bacteriostatic power in solid medium (MIC); assay type: cell-based; conditions: Corynebacterium, LRP24; solid medium; read-out: Minimum inhibiting concentration
Source text: as §2

[30] = tested on: Streptococcus pneumoniae ATCC 6303 LRP 52; assay: Bacteriostatic power in solid medium (MIC); assay type: cell-based; conditions: Streptococcus pneumoniae, ATCC6303; solid medium; read-out: Minimum inhibiting concentration
Source text: as §2

[31] = tested on: Streptococcus faecalis LRP 7; assay: Bacteriostatic power in solid medium (MIC); assay type: cell-based; conditions: Enterococcus faecalis, LRP7; solid medium; read-out: Minimum inhibiting concentration
Source text: as §2

[32] = tested on: Bacillus subtilis LRP 25; assay: Bacteriostatic power in solid medium (MIC); assay type: cell-based; conditions: Bacillus subtilis, LRP25; solid medium; read-out: Minimum inhibiting concentration
Source text: as §2

[33] = tested on: Micrococcus luteus ATCC 15957 LRP 193; assay: Bacteriostatic power in solid medium (MIC); assay type: cell-based; conditions: Micrococcus luteus, ATCC15957; solid medium; Erythromycin resistant; read-out: Minimum inhibiting concentration
Source text: as §2

[34] = tested on: Streptococcus faecalis subsp. zymogenes ATCC 12958 LRP 61; assay: Bacteriostatic power in solid medium (MIC); assay type: cell-based; conditions: Enterococcus faecalis, ATCC12958; solid medium; read-out: Minimum inhibiting concentration
Source text: as §2

[35] = tested on: Staphylococcus aureus ATCC 6538P LRP 39; assay: Bacteriostatic power in solid medium (MIC); assay type: cell-based; conditions: Staphylococcus aureus, ATCC6538P; solid medium; read-out: Minimum inhibiting concentration
Source text: as §2

[36] = tested on: Acholeplasma laidlawii ATCC 23206 LRP 204; assay: Bacteriostatic power in solid medium (MIC); assay type: cell-based; conditions: Acholeplasma laidlawii, ATCC23206; solid medium; read-out: Minimum inhibiting concentration
Source text: as §2

[37] = tested on: Streptococcus pyogenes ATCC 8668 LRP 34; assay: Bacteriostatic power in solid medium (MIC); assay type: cell-based; conditions: Streptococcus pyogenes, ATCC8668; solid medium; read-out: Minimum inhibiting concentration
Source text: as §2

[38] = Stability in acidic environment at 25° C. (half-life of initial microbiological activity); assay type: physicochemical; conditions: aqueous solution
Protocol: Stability in acidic environnment at 25° C. of the novel
Note: t 1/2 represents the time for reducing to one half the initial powe
of the antibiotic determined by microbiological method through diffusion
on a plate using the test stock Microccocus luteus (Sarcina lutea) ATCC

SMILES: CC[C@H]1OC(=O)[C@H](C)[C@@H](O[C@H]2C[C@@](C)(OC)[C@@H](O)[C@H](C)O2)[C@H](C)[C@@H](O[C@@H]2O[C@H](C)C[C@H](N(C)C)[C@H]2O)[C@](C)(O)C[C@](C)(F)C(=O)[C@H](C)[C@@H](O)[C@H]1C [P-80203, (8S)-8-fluoroerythromycin B]
- MBC/MIC [1]: 32
- MBC ([1]; Staphylococcus aureus, ATCC6538, read-out: Minimum bactericidal concentration (MBC)): 3.12 µg/mL (≈ 4.24 µM)
- MBC/MIC [2]: 8
- MBC ([2]; Enterococcus faecalis, read-out: Minimum bactericidal concentration (MBC)): 3.12 µg/mL (≈ 4.24 µM)
- MBC/MIC [3]: 1
- MBC ([3]; Streptococcus pneumoniae, ATCC6303, read-out: Minimum bactericidal concentration (MBC)): 0.049 µg/mL (≈ 0.0666 µM)
- MBC/MIC [4]: 4
- MBC ([4]; Corynebacterium, LRP24, read-out: Minimum bactericidal concentration (MBC)): 0.049 µg/mL (≈ 0.0666 µM)
- MBC/MIC [5]: 8
- MBC ([5]; Streptococcus pyogenes, ATCC8668, read-out: Minimum bactericidal concentration (MBC)): 0.195 µg/mL (≈ 0.265 µM)
- MIC [6]: 0.097 µg/mL (≈ 0.132 µM)
- MIC [7]: 0.049 µg/mL (≈ 0.0666 µM)
- MIC [8]: 0.012 µg/mL (≈ 0.0163 µM)
- MIC [9]: 0.39 µg/mL (≈ 0.53 µM)
- MIC [10]: 0.024 µg/mL (≈ 0.0326 µM)
- MIC [11]: 0.39 µg/mL (≈ 0.53 µM)
- MIC [12]: 25 µg/mL (≈ 34 µM)
- MIC [13]: 6.25 µg/mL (≈ 8.49 µM)
- MIC [14]: 25 µg/mL (≈ 34 µM)
- MIC [15]: 0.049 µg/mL (≈ 0.0666 µM)
- MIC [16]: 25 µg/mL (≈ 34 µM)
- MIC [17]: 0.097 µg/mL (≈ 0.132 µM)
- MIC [18]: 25 µg/mL (≈ 34 µM)
- MIC [19]: 25 µg/mL (≈ 34 µM)
- MIC [20]: 0.195 µg/mL (≈ 0.265 µM)
- MIC [21]: 25 µg/mL (≈ 34 µM)
- MIC [22]: 0.049 µg/mL (≈ 0.0666 µM)
- MIC [23]: 3.12 µg/mL (≈ 4.24 µM)
- MIC [24]: 0.024 µg/mL (≈ 0.0326 µM)
- MIC [25]: 0.012 µg/mL (≈ 0.0163 µM)
- MIC [26]: 0.097 µg/mL (≈ 0.132 µM)
- MIC [27]: 25 µg/mL (≈ 34 µM)
- MIC [28]: 25 µg/mL (≈ 34 µM)
- MIC [29]: 6 ng/mL (≈ 0.00815 µM)
- MIC [30]: 0.024 µg/mL (≈ 0.0326 µM)
- MIC [31]: 0.195 µg/mL (≈ 0.265 µM)
- MIC [32]: 0.049 µg/mL (≈ 0.0666 µM)
- MIC [33]: 25 µg/mL (≈ 34 µM)
- MIC [34]: 0.195 µg/mL (≈ 0.265 µM)
- MIC [35]: 0.097 µg/mL (≈ 0.132 µM)
- MIC [36]: 0.195 µg/mL (≈ 0.265 µM)
- MIC [37]: 0.024 µg/mL (≈ 0.0326 µM)
- half-life ([38]; pH 2): 180 min
- half-life ([38]; pH 3): 2700 min
